Results published in patent US20040231558A1, “Water-color ink” (priority 2001, published 2004).

Columns and labels:
[1] = Evaluation of moisture resistance (image-recorded paper at 40° C. and humidity 85%, visual observation); assay type: physicochemical; details: for (B) moisture resistance: image-recorded paper at 40° C. and humidity 85%, visually observed
[2] = Evaluation of light fastness-2 (OD value of printed portion after 400 hours xenon fadeometer); assay type: physicochemical; details: for (A)-2 light fastness-2: ink prepared as in Example 1 from the salt named in the row, OD value of printed portion after 400 hours xenon fadeometer
Method: (§1) The prepared ink was filled in an ink cartridge for a piezo-type ink-jet printer EM-930C (manufactured by Seiko Epson). The printing was performed with this printer, and the light fastness was evaluated. Further, the storage stability of the ink was evaluated.
(A)-2 Evaluation of Light Fastness-2
Printing density (OD value) was measured after irradiating a printed-portion with light for 400 hours using axenon fadeometer (manufactured by Suga Shikenki), and the light fastness was evaluated.

[3] = Solubility in water of the salt
[4] = Evaluation of storage stability of ink (40° C. for 3 months, insoluble matter and clogging); assay type: physicochemical; details: recording liquid stored at 40° C. for 3 months; for (C) storage stability: insoluble matter and clogging
Method: as §1
(C) Evaluation of Storage Stability of Ink:
After a recording liquid was stored at 40° C. for 3 months, it was observedwhether or not an insoluble matterwas precipitated, and whether or not clogging occurred after continuous recording with the foregoing printer for a long period of time.

[5] = Evaluation of light fastness-1 (OD value of printed portion after 100 hours xenon fadeometer); assay type: physicochemical; details: ink prepared as in Example 1 from the salt named in the row; OD value of printed portion after 100 hours xenon fadeometer
Method: as §1
(A)-1 Evaluation of Light Fastness-1
Printing density (OD value) was measured after irradiating a printed portion with light for 100 hours using a xenon fadeometer (manufactured by Suga Shikenki) to evaluate the light fastness.

Row | Structure (SMILES) | Evaluation of moisture resistance ([1]; image-recorded paper at 40° C., humidity 85%, visual observation) | Evaluation of light fastness-2 ([2]; ink with 3% dye printed with ink-jet printer EM-930C, 400 hours xenon fadeometer, OD value vs before irradiation) | Solubility in water ([3]; % by weight) [%] | Evaluation of ink storage stability ([4]; precipitation and clogging) | (B) moisture resistance [1] | (A)-2 light fastness-2 [2] | Solubility in water ([3]; salt type M1 to M4) [%] | (C) storage stability [4] | (A)-1 light fastness-1 [5]
1 | Cc1c(N=Nc2cc(C(=O)[O-])ccc2C(=O)[O-])c(O)[nH]c(=O)c1C#N.[K+].[K+] [potassium salt of compound No. 11] | ο | ♯ | ≥ 3 | ο |  |  |  |  | 
2 | Cc1c(N=Nc2cccc(C(=O)O)c2C(=O)O)c(O)n(CCS(=O)(=O)O)c(=O)c1C#N [compound 106] |  |  |  |  | Δ and ◯ | ⊚ and Δ | >5 | ◯ and Δ | ⊚
3 | Cc1c(N=Nc2cc(C(=O)O)ccc2C(=O)O)c(O)[nH]c(=O)c1C#N [Compound No. 11] |  |  |  |  | ◯ | ⊚ | >3 | ◯ | ⊚
4 | Cc1c(N=Nc2c(C(=O)O)cccc2C(=O)O)c(O)[nH]c(=O)c1C#N [compound 16] |  |  |  |  | Δ | ⊚ | >5 | ◯ | ⊚
5 | Cc1c(N=Nc2cccc(C(=O)O)c2C(=O)O)c(O)n(C(=O)O)c(=O)c1C#N [compound 46] |  |  |  |  | ◯ | Δ | >5 | Δ | ⊚
6 | Cc1c(N=Nc2c(C(=O)O)cccc2C(=O)O)c(O)n(C(O)CO)c(=O)c1C#N (centres unmarked) [compound 43] |  |  |  |  | Δ | ⊚ | >5 | ◯ | ⊚
7 | C[N+](C)(C)C.C[N+](C)(C)C.Cc1c(N=Nc2cc(C(=O)[O-])ccc2C(=O)[O-])c(O)[nH]c(=O)c1C#N |  |  | ≥ 3 |  | ο | ♯ |  | ο | 
8 | Cc1c(N=Nc2cc(S(=O)(=O)O)ccc2C(=O)O)c(O)n(CCC(=O)O)c(=O)c1C#N [compound 218] |  |  |  |  |  | ⊚ | >5 | ◯ | ⊚
9 | Cc1c(N=Nc2cc(C(=O)O)ccc2C(=O)O)c(O)n(CCNc2nc(O)nc(NCCn3c(O)c(N=Nc4cc(C(=O)O)ccc4C(=O)O)c(C)c(C#N)c3=O)n2)c(=O)c1C#N [Compound 294] |  |  |  |  | ⊚ | ◯ |  | Δ | ⊚
10 | CCc1c(N=Nc2cc(C(=O)O)ccc2C(=O)O)c(O)n(CCNc2nc(Cl)nc(NCCn3c(O)c(N=Nc4cc(C(=O)O)ccc4C(=O)O)c(C(F)(F)F)c(C#N)c3=O)n2)c(=O)c1C#N [Compound 250] |  |  |  |  | ⊚ | ◯ |  | Δ | ⊚
11 | Cc1c(N=Nc2cc(C(=O)O)ccc2C(=O)O)c(O)n(CCCCCCNc2nc(NCCCCCCn3c(O)c(N=Nc4cc(C(=O)O)ccc4C(=O)O)c(C)c(C#N)c3=O)nc(NCCCCCCn3c(O)c(N=Nc4cc(C(=O)O)ccc4C(=O)O)c(C)c(C#N)c3=O)n2)c(=O)c1C#N [Compound 264] |  |  |  |  | ⊚ | ◯ |  | Δ | ⊚
12 | Cc1c(N=Nc2cc(C(=O)O)ccc2C(=O)O)c(O)n(CCCCCCNC(=O)c2cc(C(=O)O)c(C(=O)NCCCCCCn3c(O)c(N=Nc4cc(C(=O)O)ccc4C(=O)O)c(C)c(C#N)c3=O)cc2C(=O)O)c(=O)c1C#N [Compound 281] |  |  |  |  | ⊚ | ◯ |  | ◯ | ⊚
13 | Cc1c(N=Nc2cc(C(=O)O)ccc2C(=O)O)c(O)n(CCNc2nc(Cl)nc(NCCn3c(O)c(N=Nc4cc(C(=O)O)ccc4C(=O)O)c(C)c(C#N)c3=O)n2)c(=O)c1C#N [Compound No. 245] |  |  |  |  | ⊚ | ◯ |  | ◯ | ⊚
14 | Cc1c(N=Nc2cccc(C(=O)O)c2C(=O)O)c(O)n(CCNC(=O)c2cc(C(=O)O)c(C(=O)NCCn3c(O)c(N=Nc4cccc(C(=O)O)c4C(=O)O)c(C)c(C#N)c3=O)cc2C(=O)O)c(=O)c1C#N [Compound 293] |  |  |  |  | ⊚ | ⊚⊚ |  | ◯ | ⊚
15 | Cc1c(N=Nc2cccc(C(=O)O)c2C(=O)O)c(O)n(C(C(=O)O)C(=O)O)c(=O)c1C#N [compound 52] |  |  |  |  | Δ and ◯ | ⊚ and Δ |  | ◯ and Δ | ⊚
16 | CCc1c(N=Nc2cc(C(=O)O)ccc2C(=O)O)c(O)n(CCNC(=O)c2cc(C(=O)NCCn3c(O)c(N=Nc4cc(C(=O)O)ccc4C(=O)O)c(CC)c(C#N)c3=O)c(C(=O)O)cc2C(=O)O)c(=O)c1C#N [Compound 297] |  |  |  |  | ⊚ | ⊚ |  | ◯ | ⊚
17 | Cc1c(N=Nc2cccc(C(=O)O)c2C(=O)O)c(O)n(CCNc2nc(NCCn3c(O)c(N=Nc4cccc(C(=O)O)c4C(=O)O)c(C)c(C#N)c3=O)nc(NCCn3c(O)c(N=Nc4cccc(C(=O)O)c4C(=O)O)c(C)c(C#N)c3=O)n2)c(=O)c1C#N [Compound 268] |  |  |  |  | ⊚ | ◯ |  | Δ | ⊚
18 | Cc1c(N=Nc2cc(C(=O)O)ccc2C(=O)O)c(O)n(CCNC(=O)c2cc(C(=O)NCCn3c(O)c(N=Nc4cc(C(=O)O)ccc4C(=O)O)c(C)c(C#N)c3=O)c(C(=O)O)cc2C(=O)O)c(=O)c1C#N [Compound 296] |  |  |  |  | ⊚ | ⊚ |  | ◯ | ⊚
19 | Cc1c(N=Nc2cc(C(=O)O)ccc2C(=O)O)c(O)n(CCS(=O)(=O)O)c(=O)c1C#N [compound 136] |  |  |  |  | Δ and ◯ | ⊚ and Δ and ◯ |  | ◯ and Δ | ⊚
20 | Cc1c(N=Nc2cc(C(=O)O)ccc2C(=O)O)c(O)n(CCNc2nc(NCCn3c(O)c(N=Nc4cc(C(=O)O)ccc4C(=O)O)c(C)c(C#N)c3=O)nc(NCCn3c(O)c(N=Nc4cc(C(=O)O)ccc4C(=O)O)c(C)c(C#N)c3=O)n2)c(=O)c1C#N [Compound 262] |  |  |  |  | ⊚ | ◯ |  | Δ | ⊚
21 | N#Cc1c(C(F)(F)F)c(N=Nc2cc(C(=O)O)ccc2C(=O)O)c(O)n(CCNc2nc(NCCn3c(O)c(N=Nc4cc(C(=O)O)ccc4C(=O)O)c(C(F)(F)F)c(C#N)c3=O)nc(NCCn3c(O)c(N=Nc4cc(C(=O)O)ccc4C(=O)O)c(C(F)(F)F)c(C#N)c3=O)n2)c1=O [Compound 265] |  |  |  |  | ⊚ | ⊚ |  | Δ | ⊚
22 | N#Cc1c(-c2ccccc2)c(N=Nc2cc(C(=O)O)ccc2C(=O)O)c(O)n(CCNC(=O)c2cc(C(=O)O)c(C(=O)NCCn3c(O)c(N=Nc4cc(C(=O)O)ccc4C(=O)O)c(-c4ccccc4)c(C#N)c3=O)cc2C(=O)O)c1=O [Compound 285] |  |  |  |  | ⊚ | ⊚⊚ |  | ◯ | ⊚
23 | CCCCc1c(N=Nc2cc(C(=O)O)ccc2C(=O)O)c(O)n(CCNc2nc(NCCn3c(O)c(N=Nc4cc(C(=O)O)ccc4C(=O)O)c(CCCC)c(C#N)c3=O)nc(NCCn3c(O)c(N=Nc4cc(C(=O)O)ccc4C(=O)O)c(CCCC)c(C#N)c3=O)n2)c(=O)c1C#N [Compound 271] |  |  |  |  | ⊚ | ⊚ |  | ◯ | ⊚
24 | CCc1c(N=Nc2cc(C(=O)O)ccc2C(=O)O)c(O)n(CCNC(=O)c2cc(C(=O)O)c(C(=O)NCCn3c(O)c(N=Nc4cc(C(=O)O)ccc4C(=O)O)c(CC)c(C#N)c3=O)cc2C(=O)O)c(=O)c1C#N [Compound 283] |  |  |  |  | ⊚ | ⊚⊚ |  | ◯ | ⊚
25 | Cc1c(N=Nc2c(C(=O)O)cccc2C(=O)O)c(O)n(CCC(=O)O)c(=O)c1C#N [compound 95] |  |  |  |  | Δ and ◯ | ⊚ and Δ |  | ◯ and Δ | ⊚
26 | Cc1c(N=Nc2c(C(=O)O)cccc2C(=O)O)c(O)n(CCNc2nc(NCCn3c(O)c(N=Nc4c(C(=O)O)cccc4C(=O)O)c(C)c(C#N)c3=O)nc(NCCn3c(O)c(N=Nc4c(C(=O)O)cccc4C(=O)O)c(C)c(C#N)c3=O)n2)c(=O)c1C#N [Compound 267] |  |  |  |  | ⊚ | ◯ |  | Δ | ⊚
27 | Cc1c(N=Nc2cc(C(=O)O)ccc2C(=O)O)c(O)n(CCNC(=O)c2ccc(C(=O)NCCn3c(O)c(N=Nc4cc(C(=O)O)ccc4C(=O)O)c(C)c(C#N)c3=O)c(C(=O)NCCn3c(O)c(N=Nc4cc(C(=O)O)ccc4C(=O)O)c(C)c(C#N)c3=O)c2)c(=O)c1C#N [Compound 305] |  |  |  |  | ⊚ | ⊚ |  | Δ | ⊚
